# Results from ChEMBL document CHEMBL1159269, “Mechanistic evaluation of new plant-derived compounds that inhibit HIV-1 reverse transcriptase” (J Nat Prod, 1995).
# What was measured:
# [1] = biological target: T1, Human immunodeficiency virus type 1 reverse transcriptase (Human immunodeficiency virus 1, UniProt Q72547); experiment: Inhibition of HIV1 reverse transcriptase p66/p51
# DNA polymerase beta = DNA polymerase beta (Homo sapiens, UniProt P06746); experiment: Inhibition of DNA polymerase beta
# [2] = Inhibition of HIV2 reverse transcriptase p66/p51; set-up: species or system Human immunodeficiency virus 2
# [3] = Inhibition of AMV reverse transcriptase; set-up: species or system Avian myeloblastosis virus
# [4] = Inhibition of RNA polymerase
# DNA = experiment: Binding affinity to calf thymus DNA assessed as inhibition of DNA peak at 260 nm wavelength at 250 ug/ml by HPLC; format: nucleic-acid assay; settings: Bos taurus
# KB = experiment: Cytotoxicity against human KB cells; format: functional; settings: read-out: ED50 (the source's name)
# Lu1 = experiment: Cytotoxicity against human Lu1 cells; format: functional; settings: read-out: ED50 (the source's name)
# LNCaP = experiment: Cytotoxicity against human LNCAP cells; format: functional; settings: read-out: ED50 (the source's name)
# ZR-75-1 = experiment: Cytotoxicity against human ZR-75-1 cells; format: functional; settings: read-out: ED50 (the source's name)
# [5] = biological target: Human immunodeficiency virus type 1 reverse transcriptase (Human immunodeficiency virus 1) (UniProt Q72547); experiment: Inhibition of HIV1 reverse transcriptase p66/p51 at 50 ug/ml in presence of 2.5 ug/ml BSA
# [6] = biological target: Human immunodeficiency virus type 1 reverse transcriptase (Human immunodeficiency virus 1) (UniProt Q72547); experiment: Inhibition of HIV1 reverse transcriptase p66/p51 at 50 ug/ml in presence of 250 ug/ml BSA
# [7] = biological target: Human immunodeficiency virus type 1 reverse transcriptase (Human immunodeficiency virus 1) (UniProt Q72547); experiment: Inhibition of HIV1 reverse transcriptase p66/p51 at 50 ug/ml in presence of 1000 ug/ml BSA
# [8] = biological target: T1, Human immunodeficiency virus type 1 reverse transcriptase; experiment: Inhibition of HIV1 reverse transcriptase p66/p51 using template-primer [oligo(dT)12-18 + poly(rA)] by mixed type competitive inhibition assay
# [9] = biological target: T1, Human immunodeficiency virus type 1 reverse transcriptase; experiment: Inhibition of HIV1 reverse transcriptase p66/p51 using TTP substrate by non-competitive inhibition type assay
# [10] = biological target: T1, Human immunodeficiency virus type 1 reverse transcriptase; experiment: Inhibition of HIV1 reverse transcriptase p66/p51 using template-primer [oligo(dT)12-18 + poly(rA)] by competitive type inhibition assay
# [11] = biological target: T1, Human immunodeficiency virus type 1 reverse transcriptase; experiment: Inhibition of HIV1 reverse transcriptase p66/p51 using TTP substrate by mixed type competitive inhibition assay
# [12] = biological target: Human immunodeficiency virus type 1 reverse transcriptase (Human immunodeficiency virus 1) (UniProt Q72547); experiment: Inhibition of HIV1 reverse transcriptase p66/p51 at 200 ug/ml in presence of 250 ug/ml BSA
# [13] = biological target: Human immunodeficiency virus type 1 reverse transcriptase (Human immunodeficiency virus 1) (UniProt Q72547); experiment: Inhibition of HIV1 reverse transcriptase p66/p51 at 200 ug/ml in presence of 1000 ug/ml BSA
IC50 [1] [µM],IC50 (DNA polymerase beta) [µM],IC50 [2] [µM],IC50 [3] [µM],IC50 [4] [µM],inhibition (DNA) [%],inhibition [5] [%],inhibition [6] [%],inhibition [7] [%],Ki [8] [µM],Ki [9] [µM],Ki [10] [µM],Ki [11] [µM],inhibition [12] [%],inhibition [13] [%],SMILES,EC50 (KB) [µg/mL],EC50 (Lu1) [µg/mL],EC50 (LNCaP) [µg/mL],EC50 (ZR-75-1) [µg/mL]
1,,,,,,,,,,,,,,,CCCc1cc(=O)oc2c3c(c4c(c12)OC(C)(C)C=C4)O[C@H](C)[C@@H](C)[C@@H]3O [CALANOLIDE A],,,,
7.2,,,,,,,,,,,,,,,CC1=C(C#C/C(C)=C/C=C/C(C)=C/C=C/C=C(C)/C=C/C=C(\C)C(=O)C[C@@]23O[C@]2(C)C[C@@H](O)CC3(C)C)C(C)(C)C[C@H](O)C1 [HALOCYNTHIAXANTHIN],,,,
,> 20,0.2,0.43,> 20,,,,,,,,,,,Cc1cn([C@H]2C[C@H](N=[N+]=[N-])[C@@H](CO)O2)c(=O)[nH]c1=O [ZIDOVUDINE],,,,
,2.2,59,15.1,> 338,0,94,19,0.8,6.7,8.3,,,,,CC1(C)CC[C@]2(C(=O)O)CC=C3[C@]4(C)CC[C@H]5C(C)(C)[C@@H](OC(=O)c6ccc(O)cc6)C[C@@H](O)[C@]5(C)[C@H]4CC[C@@]3(C)[C@H]2C1,> 20,> 20,> 20,> 20
24.3,7.4,29.6,21.9,92.8,1.3,99,52,19,10,7.1,,,,,C=C1C(=O)O[C@@H](CCCCCCCCCCCCC)[C@@H]1C(=O)O [PROTOLICHESTERINIC ACID],> 20,> 20,> 20,> 20
42.9,57.7,56.6,81,272,71,,,,,,6.7,7.1,89,82,COc1cc(O)c2c(=O)c3c(O)c(-c4c(O)c([C@@H]5O[C@H](CO)[C@@H](O)[C@H](O)[C@H]5O)c(O)c5c(=O)cc(-c6ccc(O)c(O)c6)oc45)cc(O)c3oc2c1,> 20,> 20,> 20,> 20

SMILES,IC50 [1] [µM],IC50 (DNA polymerase beta) [µM],IC50 [2] [µM],IC50 [3] [µM],IC50 [4] [µM],inhibition (DNA) [%],inhibition [5] [%],inhibition [6] [%],inhibition [7] [%],Ki [8] [µM],Ki [9] [µM],Ki [10] [µM],Ki [11] [µM],inhibition [12] [%],inhibition [13] [%],EC50 (KB) [µg/mL],EC50 (Lu1) [µg/mL],EC50 (LNCaP) [µg/mL],EC50 (ZR-75-1) [µg/mL]
COc1cc2c(ccc3c4cc(OC)c(OC)cc4c[n+](C)c23)cc1O,,,,,,100,,,,,,,,,,,,,
